Reference: patent publication US8772235B2, “Compounds having peptides conjugated to bone targeting moieties and methods of making and using thereof” (The Governors of the University of Alberta, priority 2009, dated 2014)

Legend:
[1] = Effect on plasma phosphate level in normal rats (SMCC series); assay type: in vivo, rat; details: 20 IU sCT/kg equivalent, subcutaneous
Description: (§1) Pharmacodynamic response of sCT analogue was evaluated by analyzing plasma calcium concentration in the rat model. Sprague Dawley female rats weighing 230-260 g (about 6 weeks old) were purchased from Charles River, USA and housed at the University of Alberta Animal Holding Unit. All experimental protocols were approved by the Animals Ethics Committee of the University of Alberta. The rats were divided randomly into five groups of 3 animals each and the pharmacodynamic response was assessed following subcutaneous administration of the sCT or analogue equivalent to 20 IU sCT/kg body weight. Rats were anesthetized using Isoflurane inhalation anesthesia and the 200 μl blood samples were obtained in heparinized Eppendorf microtubes before drug injection. Then 100 μl of sCT or equivalent dose in 20 mM Sodium Acetate buffer pH 5 was sub cu injected and the blood samples were collected 1, 2, 3 and 4 hrs post injection from jugular vein. Blood plasma was obtained by centrifuging the samples at 5000 rpm for 10 min and collecting the supernatant. Plasma calcium level was assayed by QuantiChrom™ Calcium Assay Kit (BioAssay Systems, CA USA) and the plasma phosphate level was assayed by QuantiChrom™ Phosphate Assay Kit (BioAssay Systems, CA USA).

[2] = Circular dichroism, secondary structure of sCT, sCT-SMCC and sCT-BP; assay type: physicochemical; details: 20 mM acetate buffer pH 5.0, 400 μg/mL sCT or equivalent
Description: For a more detailed analysis of the influence of BP coupling on secondary structural confirmation of sCT, the circular dichroism (CD) spectrum of sCT, sCT-SMCC and sCT-BP was measured in the 20 mM acetate buffer pH 5.0. CD spectra were obtained with a ConvCD spectrophotometer instrument. Spectra were acquired over a wavelength range of 190 to 260 nm. The N2 flow rate was set at 5 l/min. The sample cuvette was cleaned with 20 mM Sodium Acetate buffer pH 5, and the spectra of test samples, which comprised of 400 μg/mL of sCT or equivalent the same buffer, were recorded with the corresponding buffer serving as blanks.

[3] = Effect on plasma calcium level in normal rats (SMCC series); assay type: in vivo, rat; details: 20 IU sCT/kg equivalent, subcutaneous
Description: as §1

[4] = first hour, vs acetate buffer controls

Substance | percentage of plasma phosphate reduction ([1]; 4 hour post dosing) | percentage of plasma phosphate reduction [1, 4] | percentage of plasma phosphate reduction ([1]; second hour) | secondary structure by CD spectrum [2] | percentage of plasma calcium reduction ([3]; 4 hour post dosing) | percentage of plasma calcium reduction [3, 4] | percentage of plasma calcium reduction ([3]; second hour) | percentage of plasma calcium reduction ([3]; third hour)
sCT-BP: sCT-SMCC coupled with Thiol-BP (thiol bisphosphonate); mixture of sCT-2SMCC-1BP to sCT-3SMCC-3BP | 8.54±5.11% | 7.65±4.73% | 12.47±5.09% | strong 6-helical character | 27.36±2.28% | 13.45±1.64% | 12.47±5.09% | 26.62±5.28%
sCT-SMCC: sCT reacted with sulfo-SMCC: mono-, di- and tri-substituted thiol reactive sCT intermediates | 10.4±0.54% | 9.18±1.87% | 12.18±2.03% | increased peak intensity at 222 nm | 28.05±2.08% | 15.27±2.35% | 19.43±2.32% | 24.48±2.83%
